{"source": "paper PMC4646072", "about": "(Chemistry (Weinheim an der Bergstrasse, Germany), 2015)", "molecular_target": "AgtA (His6AgtA) (Dictyostelium discoideum, UniProt Q54RP0)", "sequence (Q54RP0 whole entry)": "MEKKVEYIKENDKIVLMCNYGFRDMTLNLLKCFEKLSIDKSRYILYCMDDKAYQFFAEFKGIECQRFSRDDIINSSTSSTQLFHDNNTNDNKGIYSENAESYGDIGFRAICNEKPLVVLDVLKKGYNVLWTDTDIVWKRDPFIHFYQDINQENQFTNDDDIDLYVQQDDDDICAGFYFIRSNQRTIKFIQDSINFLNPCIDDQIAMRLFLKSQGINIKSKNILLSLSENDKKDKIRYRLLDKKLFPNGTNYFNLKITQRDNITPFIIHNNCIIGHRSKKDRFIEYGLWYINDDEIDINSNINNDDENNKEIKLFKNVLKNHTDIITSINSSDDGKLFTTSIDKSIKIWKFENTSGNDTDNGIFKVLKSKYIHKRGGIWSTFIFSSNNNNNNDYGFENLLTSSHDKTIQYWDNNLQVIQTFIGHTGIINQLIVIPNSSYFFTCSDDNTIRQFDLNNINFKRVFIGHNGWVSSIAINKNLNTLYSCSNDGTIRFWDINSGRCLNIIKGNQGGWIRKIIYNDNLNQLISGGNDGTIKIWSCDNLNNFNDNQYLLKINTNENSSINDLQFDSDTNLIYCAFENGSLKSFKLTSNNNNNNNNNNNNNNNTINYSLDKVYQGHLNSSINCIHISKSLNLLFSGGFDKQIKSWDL", "assay": "radiometric galactosyl transfer from UDP-[3H]Gal", "type": "biochemical", "conditions": "10 µM UDP-[3H]Gal, 60 min; acceptor substrate", "data": [{"compound": "C[C@@H]1O[C@@H](Oc2ccc([N+](=O)[O-])cc2)[C@@H](O)[C@H](O)[C@@H]1O", "note": "[F-pNP]", "values": [{"measurement": "radiometric galactosyl transfer from UDP-[3H]Gal", "value": "Comparison of AgtA activity towards F-pNP and FGGn-pNP"}]}]}
